The test system of one series is deaminase enzymes. The note with it: cited from earlier work; for protection of parent drug from catabolic degradation: lipophilic fatty acid esters; for catabolism via deaminase enzymes: to ineffective metabolites.
Series [1] deals with mouse myeloma MPC-11 (subclone 66.2) cells. The experiment in a line: In vitro antiproliferative activity against mouse myeloma MPC-11 (subclone 66.2) cell line. Format: cell-based.
The conditions of series [2]: in vivo; cited from earlier work.
Series [3] in a line: Solubilization of suspensions by sonication. The series is classed as physicochemical. As to conditions: aqueous suspension at room temperature. The text has this:
In the study of biological activity of the compositions of Examples 1f and II-VII, it was first necessary to prepare solutions at room temperature. Suspensions of the compounds of Examples 1f and II-VII were all subjected to known sonication techniques in order to aid solubilization. […] Finally, the best means of solubilization was achieved by mixing the sample with araCDP-L-dipalmitin prior to sonication. In this fashion, mixtures having ratios (by weight) of the mono- to diphosphate linked derivatives from 1:2 through to 3:1 were made up and such mixtures were used for the in vitro inhibition studies.

For series [4] the following is noted: in vivo studies; cited from earlier work.
[5] abbreviates: samples made up in 0.9% saline/0.1 mM Tris, pH 7.1, read-out: ED50 (the source's name).
The mark [6] stands for this setting: solvent not stated, read-out: dose required for 50% inhibition of growth of cells in tissue culture (ED50).
[7] abbreviates: samples made up in H2O, read-out: ED50 (the source's name).

Molecules are shown by their SMILES. Where two headings read alike, the source gives them in different places.

In the case of `Nc1ccn([C@@H]2O[C@H](COC(=O)C34CC5CC(CC(C5)C3)C4)[C@@H](O)[C@@H]2O)c(=O)n1` [5'-O-adamantoyl-araC], in the series with deaminase enzymes, the “protection of parent drug from catabolic degradation” value (“protection of parent drug” for short) was “protected the parent drug from catabolic degradation”.
For `CCCCCCCCCCCCCC(=O)OC[C@H](COP(=O)(O)OP(=O)(O)OC[C@H]1O[C@@H](n2ccc(N)nc2=O)[C@@H](O)[C@@H]1O)OC(=O)CCCCCCCCCCCCC` [araCDP-L-dimyristin], the IC50 in series [1] (setting [5]) is 13.1 µM; in series [1] (setting [6]), 15 µM.
Take `Nc1ccn([C@@H]2O[C@H](CO)[C@@H](O)[C@@H]2O)c(=O)n1` [araC, 1-β-D-arabinofuranosylcytosine]: the figures for the IC50 in series [1] (setting [5]) and in series [1] (setting [7]) were 0.85 µM and 0.99 µM, respectively. In the series with deaminase enzymes, the “catabolism via deaminase enzymes” value is “rapid catabolism”.
Consider `CCCCCCCCCCCCCCCC(=O)OC[C@H](COP(=O)(O)OP(=O)(O)OC[C@H]1O[C@@H](n2ccc(N)nc2=O)[C@@H](O)[C@@H]1O)OC(=O)CCCCCCCCCCCCCCC` [araCDP-L-dipalmitin], for which the IC50 in series [1] (setting [5]) worked out at 42.1 µM; in series [1] (setting [6]), 65 µM.
For `CCCCCCCCCCCCCCCC(=O)OC[C@H](COP(=O)(O)OP(=O)(O)OC[C@H]1O[C@@H](n2ccc3c(N)ncnc32)[C@H](O)[C@@H]1O)OC(=O)CCCCCCCCCCCCCCC` [TubercidinDP--L-dipalmitin, Tubercidin-5'-diphosphate-L-1,2-dipalmitin], the IC50 in series [1] (setting [7]) is 5 µM.
Consider `CCCCC(=O)OC[C@H]1O[C@@H](n2cnc3c(N)ncnc32)[C@@H](O)[C@@H]1O` [5'-O-valeryl-araA], for which, in the series on deaminase enzymes, the “protection of parent drug” value was “protected the parent drug from catabolic degradation”.
Regarding `Nc1ncnc2c1ncn2[C@@H]1O[C@H](CO)[C@@H](O)[C@@H]1O` [araA, 9-β-D-arabinofuranosyladenine], the “catabolism via deaminase enzymes” value with deaminase enzymes was “rapid catabolism”.
`O=c1ccn([C@@H]2O[C@H](CO)[C@@H](O)[C@@H]2O)c(=O)[nH]1` [araU, 1-β-D-arabinofuranosyluracial]: the “appearance of metabolite in urine” value in series [2] was “appears rapidly in human urine”.
For the molecule `CCCCCCCCCCCCCCCCCC(=O)OC[C@H](COP(=O)(O)OP(=O)(O)OC[C@H]1O[C@@H](n2ccc(N)nc2=O)[C@@H](O)[C@@H]1O)OC(=O)CCCCCCCCCCCCCCCCC` [araCDP-L-distearin, 1-β-D-Arabinofuranosylcytosine-5'-diphosphate-L-1,2-distearin], the results for the IC50 in series [1] (setting [5]) and in series [1] (setting [6]) were 168 µM and 195 µM, respectively. Moreover, the solubilization by sonication entry in series [3] is recorded as “remained slightly opalescent”.
As for `CCCCCCCCCCCCCCCC(=O)OC[C@H]1O[C@@H](n2ccc(N)nc2=O)[C@@H](O)[C@@H]1O` [5'-O-palmitoyl-araC], the “protection of parent drug” value with deaminase enzymes is “protected the parent drug from catabolic degradation”. In addition, in series [4], the “therapeutic advantage in vivo” value was “no therapeutic advantages”.
Take `CCCCCCCC/C=C\CCCCCCCC(=O)OC[C@H](COP(=O)(O)OP(=O)(O)OC[C@H]1O[C@@H](n2ccc(N)nc2=O)[C@@H](O)[C@@H]1O)OC(=O)CCCCCCC/C=C\CCCCCCCC` [araCDP-L-diolein, 1-β-D-Arabinofuranosylcytosine-5'-diphosphate-L-1,2-diolein]: the IC50 in series [1] (setting [5]) is 43.9 µM; in series [1] (setting [6]), 62 µM.
As for `CCCCCCCCCCCCCCCC(=O)OC[C@H](COP(=O)(O)OC[C@H]1O[C@@H](n2ccc(N)nc2=O)[C@@H](O)[C@@H]1O)OC(=O)CCCCCCCCCCCCCCC` [araCMP-L-dipalmitin], in series [3], the solubilization by sonication entry is “resisted solubilization even when samples were mixed with several types of detergent prior to sonication”.

These data come from patent US4471113A, “Prodrugs based on phospholipid-nucleoside conjugates” (priority 1982, dated 1984).
